The source made the active and inactive calls. The rule behind the calls is not given here.
Experiments:
[1] = target: T1, Protein-S-isoprenylcysteine O-methyltransferase (Homo sapiens, UniProt O60725); assay: Inhibition of human ICMT at 10 uM by vapor diffusion assay
[2] = target: T1, Protein-S-isoprenylcysteine O-methyltransferase; assay: Substrate activity at human ICMT by vapor diffusion assay
[3] = target: T1, Protein-S-isoprenylcysteine O-methyltransferase; assay: Inhibition of human ICMT by vapor diffusion assay
[4] = target: T1, Protein-S-isoprenylcysteine O-methyltransferase; assay: Inhibition of human ICMT at 25 uM by vapor diffusion assay

T1 sequence (O60725 whole entry, the tested form may be a part): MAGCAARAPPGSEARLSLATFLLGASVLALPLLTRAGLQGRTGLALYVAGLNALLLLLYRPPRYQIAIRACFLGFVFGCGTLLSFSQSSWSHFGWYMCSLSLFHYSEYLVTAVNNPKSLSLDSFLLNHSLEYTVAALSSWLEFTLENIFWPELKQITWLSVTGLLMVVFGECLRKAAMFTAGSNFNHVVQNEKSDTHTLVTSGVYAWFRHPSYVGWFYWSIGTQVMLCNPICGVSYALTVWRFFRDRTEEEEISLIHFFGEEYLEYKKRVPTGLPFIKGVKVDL

Structure (SMILES) | inhibition [1] [%] | other results
COc1ccc([N+](=O)[O-])c(C(=O)N[C@@H](Cn2cc(C/C=C(\C)CC/C=C(\C)CCC=C(C)C)nn2)C(=O)O)c1 | 10.1 | Activity [2]: inactive
CC(C)=CCC/C(C)=C/CC/C(C)=C/Cc1cn(C[C@H](NC(=O)c2ccccc2-c2ccccc2)C(=O)O)nn1 | 17 | Activity [2]: inactive
CC(C)=CCC/C(C)=C/CC/C(C)=C/Cc1cn(C[C@H](NC(=O)c2ccccc2Oc2ccccc2)C(=O)O)nn1 | 35.9 | IC50 [3]: 19.4 µM
CC(=O)N[C@@H](Cn1cc(C/C=C(\C)CC/C=C(\C)CCC=C(C)C)nn1)C(=O)O | 19.5 | Activity [2]: inactive
CCCCCCc1ccc(CC/C(C)=C/CSC[C@H](NC(C)=O)C(=O)O)cc1 | 18.8 | –
CCCCCc1ccc(CC/C(C)=C/CSC[C@H](NC(C)=O)C(=O)O)cc1 | 23.1 | –
CC(=O)N[C@@H](CSC/C=C(/C)CC/C=C(/C)CCC=C(C)C)C(=O)O | – | inhibition [4]: 100%
CC(C)=CCC/C(C)=C/CC/C(C)=C/Cc1cn(C[C@H](NC(=O)CCS(=O)(=O)c2ccccc2)C(=O)O)nn1 | 22.7 | Activity [2]: inactive
CCCCCCCCc1ccc(CC/C(C)=C/CSC[C@H](NC(C)=O)C(=O)O)cc1 | 31.1 | IC50 [3]: 34.6 µM

More lines, main results first:

inhibition [1] [%] | Structure (SMILES) | other results
9.8 | CC(=O)N[C@@H](CSC/C=C(\C)COc1ccc(Cc2ccccc2)cc1)C(=O)O | –
25.3 | CC(=O)N[C@@H](CSC/C=C(/Cc1ccc2c(c1)Cc1ccccc1-2)c1ccccc1)C(=O)O | –
15.7 | CC(=O)N[C@@H](CSC/C=C(/Cc1ccccc1)c1ccccc1)C(=O)O | –
22.4 | CC(=O)N[C@@H](CSC/C=C(\C)CCCCOc1ccc2ccccc2c1)C(=O)O | –
20.7 | CCCc1ccc(CC/C(C)=C/CSC[C@H](NC(C)=O)C(=O)O)cc1 | –
15.5 | CC(=O)N[C@@H](CSC/C=C(\C)COc1ccc(Oc2ccccc2)cc1)C(=O)O | –
19.4 | CC(=O)N[C@@H](CSC/C=C(\C)CCCCOc1ccc(Oc2ccccc2)cc1)C(=O)O | –
26.6 | CC(=O)N[C@@H](CSC/C=C(/Cc1ccc(-c2ccccc2)cc1)c1ccccc1)C(=O)O | –
14.5 | CC(=O)N[C@@H](CSC/C=C(\C)COc1ccc2ccccc2c1)C(=O)O | –

From ChEMBL document CHEMBL1828533, “Lipid and sulfur substituted prenylcysteine analogs as human Icmt inhibitors” (Bioorg Med Chem Lett, 2011)
